Experimental data as given in patent publication US20220162191A1, “SMALL MOLECULE MODULATORS OF IL-17” (LEO PHARMA A/S, priority 2019, published 2022).

target: T1, human IL-17AA (Homo sapiens, UniProt Q16552); test: IL-8 release assay in human epithelial keratinocytes adult (HEKa); type: cell-based; conditions: 3 ng/ml human IL-17AA + 10 ng/ml human TNFalpha, 68-72 h, IL-8 by HTRF, read-out: Rel EC50 L-8 release assay
T1 construct: host or cells: HEK (human embryonic kidney) cells
T1 sequence (Q16552 24-155) 1: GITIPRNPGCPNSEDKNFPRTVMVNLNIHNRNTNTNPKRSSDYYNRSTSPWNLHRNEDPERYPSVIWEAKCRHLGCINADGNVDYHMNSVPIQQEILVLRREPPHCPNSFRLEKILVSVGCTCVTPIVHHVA
T1 sequence (Q16552 24-155) 2: T1 sequence (Q16552 24-155) 1
In short: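 Adult human keratinocytes in Epilife with HKGS minus hydrocortisone, treated with compound then stimulated with final 3 ng/ml HEK-derived human IL-17AA plus 10 ng/ml TNF-alpha for 68–72 h at 37 °C; TNF-alpha alone defines 100% inhibition. Secreted IL-8 by HTRF; relative IC50 and Emax from four-parameter fits.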

EC50	SMILES
100 to 1000 nM	Cc1ncn(C)c1-c1ccc(NC(=O)[C@@H](NC(=O)C2(F)CC2)[C@@H]2CCCc3ccc(-c4ccnc(N5C[C@H]6C[C@@H]5CN6)c4)cc32)cc1 [Example 389, N-[(1S)-1-[(1R)-7-[2-[(1R,4R)-2,5-diazabicyclo[2.2.1]heptan-2-yl]-4-pyridyl]tetralin-1-yl]-2-[4-(3,5-dimethylimidazol-4-yl)anilino]-2-oxo-ethyl]-1-fluoro-cyclopropanecarboxamide]
100 to 1000 nM	Cc1n[nH]c(C)c1-c1ccc(NC(=O)[C@@H](NC(=O)C2(F)CC2)[C@@H]2CCCc3ccc(-c4ccc(CN5C[C@H]6C[C@@H]5CO6)cc4)cc32)cc1 [Example 390, N-[(1S)-2-[4-(3,5-dimethyl-1H-pyrazol-4-yl)anilino]-1-[(1R)-7-[4-[[(1R,4R)-2-oxa-5-azabicyclo[2.2.1]heptan-5-yl]methyl]phenyl]tetralin-1-yl]-2-oxo-ethyl]-1-fluoro-cyclopropanecarboxamide]
< 100 nM	Cc1n[nH]c(C)c1-c1ccc(NC(=O)[C@@H](NC(=O)C2(F)CC2)[C@@H]2CCCc3ccc(-c4cc(C)c(=O)n(C(C)C)c4)cc32)cc1 [Example 391, N-[(1S)-2-[4-(3,5-dimethyl-1H-pyrazol-4-yl)anilino]-1-[(1R)-7-(1-isopropyl-5-methyl-6-oxo-3-pyridyl)tetralin-1-yl]-2-oxo-ethyl]-1-fluoro-cyclopropanecarboxamide]
100 to 1000 nM	Cc1cnn(C)c1-c1ccc(NC(=O)[C@@H](NC(=O)C2(F)CC2)[C@@H]2CCCc3ccc(-c4ccnc(N5C[C@@H]6C[C@H]5CN6)c4)cc32)cc1 [Example 392, N-[(1S)-1-[(1R)-7-[2-[(1S,4S)-2,5-diazabicyclo[2.2.1]heptan-2-yl]-4-pyridyl]tetralin-1-yl]-2-[4-(2,4-dimethylpyrazol-3-yl)anilino]-2-oxo-ethyl]-1-fluoro-cyclopropanecarboxamide]
100 to 1000 nM	Cc1n[nH]c(C)c1-c1ccc(NC(=O)[C@@H](NC(=O)C2(F)CC2)[C@@H]2CCCc3ccc(-c4cnn(C(F)F)c4)cc32)cc1 [Example 393, N-[(1S)-1-[(1R)-7-[1-(difluoromethyl)pyrazol-4-yl]tetralin-1-yl]-2-[4-(3,5-dimethyl-1H-pyrazol-4-yl)anilino]-2-oxo-ethyl]-1-fluoro-cyclopropanecarboxamide]
< 100 nM	Cc1n[nH]c(C)c1-c1ccc(NC(=O)[C@@H](NC(=O)c2ccnn2C)[C@@H]2CCCc3ccc(-c4ccnc(N5C[C@H]6C[C@@H]5CO6)c4)cc32)cc1 [Example 394, N-[(1S)-2-[4-(3,5-dimethyl-1H-pyrazol-4-yl)anilino]-1-[(1R)-7-[2-[(1R,4R)-2-oxa-5-azabicyclo[2.2.1]heptan-5-yl]-4-pyridyl]tetralin-1-yl]-2-oxo-ethyl]-2-methyl-pyrazole-3-carboxamide]
< 100 nM	Cc1n[nH]c(C)c1-c1ccc(NC(=O)[C@@H](NC(=O)C2(F)CC2)[C@@H]2CCCc3ccc(-c4cnn(C5CCOCC5)c4)cc32)cc1 [Example 396, N-[(1S)-2-[4-(3,5-dimethyl-1H-pyrazol-4-yl)anilino]-2-oxo-1-[(1R)-7-(1-tetrahydropyran-4-ylpyrazol-4-yl)tetralin-1-yl]ethyl]-1-fluoro-cyclopropanecarboxamide]
< 100 nM	Cc1n[nH]c(C)c1-c1ccc(NC(=O)[C@@H](NC(=O)C2(F)CC2)[C@@H]2CCCc3ccc(-c4cc(N5C[C@@H]6C[C@H]5CO6)ncn4)cc32)cc1 [Example 397, N-[(1S)-2-[4-(3,5-dimethyl-1H-pyrazol-4-yl)anilino]-1-[(1R)-7-[6-[(1S,4S)-2-oxa-5-azabicyclo[2.2.1]heptan-5-yl]pyrimidin-4-yl]tetralin-1-yl]-2-oxo-ethyl]-1-fluoro-cyclopropanecarboxamide]

More lines, now with the values behind:

SMILES	EC50
Cc1n[nH]c(C)c1-c1ccc(NC(=O)[C@@H](NC(=O)C2(F)CC2)[C@@H]2CCc3ccc(-c4cc(N5CC(F)C5)ncn4)cc32)cc1 [Example 376, N-[(1S)-2-[4-(3,5-dimethyl-1H-pyrazol-4-yl)anilino]-1-[(1R)-6-[6-(3-fluoroazetidin-1-yl)pyrimidin-4-yl]indan-1-yl]-2-oxo-ethyl]-1-fluoro-cyclopropanecarboxamide]	100 to 1000 nM
Cc1n[nH]c(C)c1-c1ccc(NC(=O)[C@@H](NC(=O)C2(F)CC2)[C@@H]2CCc3ccc(-c4cncc(N5C[C@@H]6C[C@H]5CO6)c4)cc32)cc1 [Example 377, N-[(1S)-2-[4-(3,5-dimethyl-1H-pyrazol-4-yl)anilino]-1-[(1R)-6-[5-[(1S,4S)-2-oxa-5-azabicyclo[2.2.1]heptan-5-yl]-3-pyridyl]indan-1-yl]-2-oxo-ethyl]-1-fluoro-cyclopropanecarboxamide]	< 100 nM
Cc1cnn(C)c1-c1ccc(NC(=O)[C@@H](NC(=O)c2ccnn2C)[C@@H]2CCc3ccc(-c4ccnc(N5C[C@@H]6C[C@H]5CO6)c4)cc32)cc1 [Example 378, N-[(1S)-2-[4-(2,4-dimethylpyrazol-3-yl)anilino]-1-[(1R)-6-[2-[(1S,4S)-2-oxa-5-azabicyclo[2.2.1]heptan-5-yl]-4-pyridyl]indan-1-yl]-2-oxo-ethyl]-2-methyl-pyrazole-3-carboxamide]	< 100 nM
Cc1cnn(C)c1-c1ccc(NC(=O)[C@@H](NC(=O)C2(F)CC2)[C@@H]2CCc3ccc(-c4cncc(N5C[C@@H]6C[C@H]5CO6)n4)cc32)cc1 [Example 379, N-[(1S)-2-[4-(2,4-dimethylpyrazol-3-yl)anilino]-1-[(1R)-6-[6-[(1S,4S)-2-oxa-5-azabicyclo[2.2.1]heptan-5-yl]pyrazin-2-yl]indan-1-yl]-2-oxo-ethyl]-1-fluoro-cyclopropanecarboxamide]	< 100 nM
Cc1cnn(C)c1-c1ccc(NC(=O)[C@@H](NC(=O)c2ccnn2C)[C@@H]2CCc3ccc(-c4cncc(C5CC5)n4)cc32)cc1 [Example 380, N-[(1S)-1-[(1R)-6-(6-cyclopropylpyrazin-2-yl)indan-1-yl]-2-[4-(2,4-dimethylpyrazol-3-yl)anilino]-2-oxo-ethyl]-2-methyl-pyrazole-3-carboxamide]	100 to 1000 nM
Cc1n[nH]c(C)c1-c1ccc(NC(=O)[C@@H](NC(=O)C2(F)CC2)[C@@H]2CCc3ccc(-c4cnnc(C5CC5)c4)cc32)cc1 [Example 381, N-[(1S)-1-[(1R)-6-(6-cyclopropylpyridazin-4-yl)indan-1-yl]-2-[4-(3,5-dimethyl-1H-pyrazol-4-yl)anilino]-2-oxo-ethyl]-1-fluoro-cyclopropanecarboxamide]	100 to 1000 nM
Cc1cnn(C)c1-c1ccc(NC(=O)[C@@H](NC(=O)c2ccnn2C)[C@@H]2CCc3ccc(-c4ccnc(C(C)C)n4)cc32)cc1 [Example 382, N-[(1S)-2-[4-(2,4-dimethylpyrazol-3-yl)anilino]-1-[(1R)-6-(2-isopropylpyrimidin-4-yl)indan-1-yl]-2-oxo-ethyl]-2-methyl-pyrazole-3-carboxamide]	100 to 1000 nM
Cc1cnn(C)c1-c1ccc(NC(=O)[C@@H](NC(=O)C2(F)CC2)[C@@H]2CCc3ccc(-c4cc(N5C[C@@H]6C[C@H]5CO6)cnn4)cc32)cc1 [Example 383, N-[(1S)-2-[4-(2,4-dimethylpyrazol-3-yl)anilino]-1-[(1R)-6-[5-[(1S,4S)-2-oxa-5-azabicyclo[2.2.1]heptan-5-yl]pyridazin-3-yl]indan-1-yl]-2-oxo-ethyl]-1-fluoro-cyclopropanecarboxamide]	> 1000 nM
Cc1n[nH]c(C)c1-c1ccc(NC(=O)[C@@H](NC(=O)C2(F)CC2)[C@@H]2CCc3ccc(-c4cc(C5CC5)cnn4)cc32)cc1 [Example 384, N-[(1S)-1-[(1R)-6-(5-cyclopropylpyridazin-3-yl)indan-1-yl]-2-[4-(3,5-dimethyl-1H-pyrazol-4-yl)anilino]-2-oxo-ethyl]-1-fluoro-cyclopropanecarboxamide]	100 to 1000 nM
Cc1cnn(C)c1-c1ccc(NC(=O)[C@@H](NC(=O)C2(F)CC2)[C@@H]2CCc3ccc(-c4cnnc(C5CC5)c4)cc32)cc1 [Example 385, N-[(1S)-1-[(1R)-6-(6-cyclopropylpyridazin-4-yl)indan-1-yl]-2-[4-(2,4-dimethylpyrazol-3-yl)anilino]-2-oxo-ethyl]-1-fluoro-cyclopropanecarboxamide]	100 to 1000 nM
Cc1cnn(C)c1-c1ccc(NC(=O)[C@@H](NC(=O)c2ccnn2C)[C@@H]2CCc3ccc(-c4cc(N5C[C@@H]6C[C@H]5CO6)ncn4)cc32)cc1 [Example 386, N-[(1S)-2-[4-(2,4-dimethylpyrazol-3-yl)anilino]-1-[(1R)-6-[6-[(1S,4S)-2-oxa-5-azabicyclo[2.2.1]heptan-5-yl]pyrimidin-4-yl]indan-1-yl]-2-oxo-ethyl]-2-methyl-pyrazole-3-carboxamide]	100 to 1000 nM
Cc1n[nH]c(C)c1-c1ccc(NC(=O)[C@@H](NC(=O)C2(F)CC2)[C@@H]2CCCc3ccc(-c4ccnc(N5C[C@H]6C[C@@H]5CO6)c4)cc32)cc1 [Example 387, N-[(1S)-2-[4-(3,5-dimethyl-1H-pyrazol-4-yl)anilino]-1-[(1R)-7-[2-[(1R,4R)-2-oxa-5-azabicyclo[2.2.1]heptan-5-yl]-4-pyridyl]tetralin-1-yl]-2-oxo-ethyl]-1-fluoro-cyclopropanecarboxamide]	< 100 nM
Cc1n[nH]c(C)c1-c1ccc(NC(=O)[C@@H](NC(=O)c2ccnn2C)[C@@H]2CCCc3ccc(-c4cccc(CN5CCC5)c4)cc32)cc1 [Example 388, N-[(1S)-1-[(1R)-7-[3-(azetidin-1-ylmethyl)phenyl]tetralin-1-yl]-2-[4-(3,5-dimethyl-1H-pyrazol-4-yl)anilino]-2-oxo-ethyl]-2-methyl-pyrazole-3-carboxamide]	< 100 nM
